Results on 17 compounds are retold here after patent US7598260B2, “CDK-inhibitory pyrimidines, their production and use as pharmaceutical agents” (Bayer Schering Pharma Aktiengesellschaft, priority 2001, dated 2009).

The test system of data set [1] is human tumor cells (as indicated). As to the kind of experiment: Proliferation assay, crystal violet staining, other human tumor cells as indicated in the tables. In kind it is cell-based. The following applies: 4 days incubation. As to the method:
(§1) Cultivated human tumor cells (as indicated) are flattened out at a density of 5000 cells/measuring point in a 96-hole multititer plate in 200 μl of the corresponding growth medium. After 24 hours, the cells of one plate (zero-point plate) are colored with crystal violet (see below), while the medium of the other plates is replaced by fresh culture medium (200 μl), to which the test substances are added at various concentrations (0 μm, as well as in the range of 0.01-30 μm; the final concentration of the solvent dimethyl sulfoxide is 0.5%). The cells are incubated for 4 days in the presence of test substances. The cell proliferation is determined by coloring the cells with crystal violet: the cells are fixed by adding 20 μl/measuring point of a 11% glutaric aldehyde solution for 15 minutes at room temperature. After three washing cycles of the fixed cells with water, the plates are dried at room temperature. The cells are colored by adding 100 μl/measuring point of a 0.1% crystal violet solution (pH is set at 3 by adding acetic acid). After three washing cycles of the colored cells with water, the plates are dried at room temperature. The dye is dissolved by adding 100 μl/measuring point of a 10% acetic acid solution. The extinction is determined by photometry at a wavelength of 595 nm. The change of cell growth, in percent, is calculated by standardization of the measured values to the extinction values of the zero-point plate (=0%) and the extinction of the untreated (0 μm) cells (=100%).

In another data set the test system is MCF-7 cells. As to the kind of experiment: Proliferation assay, crystal violet staining (cell test), MCF-7. The format is cell-based. The following applies: Homo sapiens. As to the method: as §1
A further data set has as its target T1, CDK2/CycE (Homo sapiens, UniProt P24941).
T1 construct: GST; purchased Dr. Dieter Marmé, Klinik für Tumorbiologie, Freiburg; host or cells: baculovirus-infected Sf9 insect cells
Put plainly: CDK2/CycE kinase assay (enzyme test). In kind it is biochemical. Particulars: read-out: Inhibition IC50 [nM] CDK2/CycE. As to the method:
Recombinant CDK2- and CycE-GST-fusion proteins, purified from baculovirus-infected insect cells (Sf9), are obtained by Dr. Dieter Marmé, Klinik für Tumorbiologie [Clinic for Tumor Biology], Freiburg. Histone IIIS, which is used as a kinase substrate, is purchased by the Sigma Company.
The reaction was is stopped by adding EDTA solution (250 mmol, pH 8.0, 14 μl/measuring point).
From each reaction batch, 10 μl applied to P30 filter strips (Wallac Company), and non-incorporated ^33P-ATP is removed by subjecting the filter strips to three washing cycles for 10 minutes each in 0.5% phosphoric acid. After the filter strips are dried for one hour at 70° C., the filter were are covered with scintillator strips (MeltiLex™ A, Wallac Company) and baked for one hour at 90° C. The amount of incorporated ^33P (substrate phosphorylation) is determined by scintillation measurement in a gamma-radiation measuring device (Wallac).

A short description of data set [2]: Solubility (Löslichkeit, g/l). The format is physicochemical. The following applies: for Löslichkeit: comparison with known compounds.
Where [3] appears, read: DU-145, 96 h, DU145 cells, read-out: Proliferation IC50 [μM] DU145.
[4] abbreviates: HCT-116, 96 h, HCT116 cells, read-out: Proliferation IC50 [μM] HCT116.
The mark [5] stands for this setting: NCI-H460, 96 h, H460 cells, read-out: Proliferation IC50 [μM] H460.
[6] abbreviates: 96 h, MCF7 cells, 4 days incubation, read-out: Proliferation IC50 [μM] MCF7.
Where [7] appears, read: MCF7, MCF-7 cells, comparison with known compounds, read-out: MCF-7 IC50.

SMILES strings stand for the structures. Read-outs that look alike come from different tables or passages of the source.

`CC(=O)c1ccc(Nc2ncc(Br)c(NCC3CC3)n2)cc1` [Example 52]: the IC50 was found to be 2 µM in data set [1] (setting [3]); 1.2 µM in data set [1] (setting [4]); 1.6 µM in data set [1] (setting [5]); 0.2 µM in the data set on MCF-7 cells (setting [6]); 200 nM at CDK2/CycE. Also, the “Sw” value in data set [2] turned out to be 0.0005 g/L.
Consider `C#CCOc1nc(Nc2ccc(OCC3CO3)cc2)ncc1Br` (stereo not drawn) [Example 40], for which the IC50 in data set [1] (setting [3]) was found to be 9 µM; in data set [1] (setting [4]) it was 3 µM; in data set [1] (setting [5]), 3 µM; in the data set with MCF-7 cells (setting [6]) it was 1 µM; on CDK2/CycE it was 20 nM. The “Sw” value in data set [2] is 0.002 g/L.
With `C#CCOc1nc(Nc2ccc(C(C)=O)cc2)ncc1Br` [Example 22, 1-[4-[(5-Bromo-4-(2-propynyloxy)-2-pyrimidinyl)amino]phenyl]-ethanone], the IC50 in data set [1] (setting [3]) is 1.5 µM; in data set [1] (setting [4]) it was 1.5 µM; in data set [1] (setting [5]), 1.5 µM; with MCF-7 cells (setting [6]), 1.2 µM; at CDK2/CycE it was 40 nM. For the same compound, the “Sw” value in data set [2] is 0.003 g/L.
On to `CCC(Nc1nc(Nc2ccc(S(N)(=O)=O)cc2)ncc1Br)C(=O)OC` (stereo not drawn) [Example 45], for which the IC50 is 0.5 µM in data set [1] (setting [3]); 1.2 µM in data set [1] (setting [4]); 1.7 µM in data set [1] (setting [5]); 2 µM in the data set on MCF-7 cells (setting [6]); 10 nM on CDK2/CycE. Also, the “Sw” value in data set [2] was found to be 0.0094 g/L.
As for `C#CCOc1nc(Nc2ccc(O)cc2)ncc1Br` [Example 6, 4-[[5-Bromo-4-(2-propynyloxy)-2-pyrimidinyl]amino]-phenol], the figures for the IC50 (in data set [1] (setting [5]); with MCF-7 cells (setting [6]); on CDK2/CycE) were 6 µM, 4 µM and 70 nM, respectively. In addition, the “Sw” value in data set [2] worked out at 0.008 g/L.
As for `C#CCNc1nc(Nc2ccc([S+](C)[O-])cc2)ncc1Br` (stereo not drawn) [Example 25], the IC50 amounted to 1.2 µM in data set [1] (setting [3]); 1.1 µM in data set [1] (setting [4]); 1.5 µM in data set [1] (setting [5]); 1.2 µM with MCF-7 cells (setting [6]); 70 nM at CDK2/CycE. Moreover, in data set [2], the “Sw” value worked out at 0.017 g/L.
Regarding `NS(=O)(=O)c1ccc(Nc2ncc(Br)c(NC(CO)CO)n2)cc1` [Example 9], the IC50 in data set [1] (setting [3]) came out at 3 µM; in data set [1] (setting [4]), 3 µM; with MCF-7 cells (setting [6]), 0.9 µM; in the data set on MCF-7 cells (setting [7]), 0.9 µM; on CDK2/CycE, 7 nM. Also, the “Löslichkeit” value in data set [2] was 0.009 g/L.
`O=S(=O)(CCO)c1cccc(Nc2ncc(Br)c(NC(CO)CO)n2)c1` [Example 19]: the IC50 was over 10 µM with MCF-7 cells (setting [6]) and 800 nM on CDK2/CycE. For the same compound, the “Sw” value in data set [2] was determined as 0.041 g/L.
On to `COC[C@H](C)Nc1nc(Nc2ccc(S(N)(=O)=O)cc2)ncc1Br` [Example 7], for which the IC50 was determined as 0.5 µM in data set [1] (setting [3]); 1.2 µM in data set [1] (setting [4]); 1.5 µM in data set [1] (setting [5]); 0.7 µM with MCF-7 cells (setting [6]); 6 nM on CDK2/CycE. Besides, the “Sw” value in data set [2] was 0.028 g/L.
For `NS(=O)(=O)c1ccc(Nc2ncc(Br)c(NCC3CC3)n2)cc1` [Example 46], the values for the IC50 in the data set with MCF-7 cells (setting [6]) and on CDK2/CycE were 2 µM and 7 nM, respectively. Further, in data set [2], the “Sw” value is 0.0069 g/L.
As for `C#CCNc1nc(Nc2ccc(S(N)(=O)=O)cc2)ncc1Cl` [Example 44], the IC50 in data set [1] (setting [3]) was determined as 0.3 µM; in data set [1] (setting [4]) it was 0.4 µM; in data set [1] (setting [5]) it was 0.4 µM; in the data set with MCF-7 cells (setting [6]), 1.2 µM; at CDK2/CycE it was 8 nM. Further, the “Sw” value in data set [2] is 0.005 g/L.
Consider `CC(C)[C@H](CO)Nc1nc(Nc2ccc(S(=O)(=O)NCCO)cc2)ncc1Br` [Example 48], for which the IC50 was 0.3 µM in data set [1] (setting [3]); 0.4 µM in data set [1] (setting [4]); 1 µM in data set [1] (setting [5]); 0.2 µM in the data set with MCF-7 cells (setting [6]); 0.2 µM in the data set with MCF-7 cells (setting [7]); 4 nM at CDK2/CycE. The “Sw” value in data set [2] worked out at 0.042 g/L. Besides, the “Löslichkeit” value in data set [2] stood at 0.042 g/L.
For the compound `COC[C@H](C)Nc1nc(Nc2cccc(S(=O)(=O)CCO)c2)ncc1Br` [Example 17], the IC50 was over 10 µM in the data set with MCF-7 cells (setting [6]) and 1000 nM at CDK2/CycE. Also, the “Sw” value in data set [2] was 0.04 g/L.
For `C#CCNc1nc(Nc2ccc(CP(=O)(OCC)OCC)cc2)ncc1Br` [Example 31] the same measures were 7 µM, 800 nM and 0.0023 g/L.
On to `C#CCNc1nc(Nc2cccc(S(N)(=O)=O)c2)ncc1Br` [Example 36], for which the IC50 turned out to be 0.6 µM in data set [1] (setting [3]); 0.5 µM in data set [1] (setting [4]); 0.6 µM in data set [1] (setting [5]); 0.4 µM with MCF-7 cells (setting [6]); 30 nM at CDK2/CycE. Besides, the “Sw” value in data set [2] was found to be 0.018 g/L.
On to `NS(=O)(=O)c1ccc(Nc2ncc(Br)c(NCCCC(=O)O)n2)cc1` [Example 49], for which the results for the IC50 in the data set with MCF-7 cells (setting [6]) and at CDK2/CycE were over 10 µM and 50 nM, respectively. The “Sw” value in data set [2] was 0.044 g/L.
The matching figures for `NS(=O)(=O)c1ccc(Nc2ncc(Br)c(NCCN3CCOCC3)n2)cc1` [Example 8]: 4 µM, under 10 nM and 0.007 g/L.
